{"source": "patent US9828630B2", "about": "“Methods of enhancing genetic diagnosis” (BioLamina AB, priority 2011, dated 2017)", "key": {"ES cells": {"test_system": "ES cells", "assay": "Embryoid body formation", "assay_type": "cell-based, human", "conditions": "cells cultured on LN-521, all three cases", "protocol": "ES cells from LN-521 coated cell culture dishes were exposed to TrypLE™ Select for one minute at 37° C., 5% CO2, washes two times with a medium, broken into large pieces and cultured in suspension in low adhesion plates. The medium used for this was Knockout DMEM (GIBCO Invitrogen Corporation) supplemented with 2 mM L-glutamine, 20% fetal calf serum (GIBCO Invitrogen Corporation), 0.1 mM β-mercaptoethanol (GIBCO Invitrogen Corporation) and 1% non-essential amino acids (GIBCO Invitrogen Corporation). After 1-2 weeks in suspension, the embryoid bodies were transferred onto gelatin coated tissue cell culture 96-well plates (Sarstedt), cultured for 1-2 weeks, then fixed, stained with antibodies against markers of all three embryonic germ line layers (smooth muscle actin, MAP-2 and α-fetoprotein) and analyzed as described above for immunofluorescence."}, "OCT4": {"test_system": "OCT4", "assay": "FACS analysis for OCT4", "assay_type": "cell-based, human", "conditions": "after several single cell suspension passages, O3 medium, FIG. 9 and 10", "protocol": "OCT4 expression was analyzed as described in Ludwig, T. E. et al. Derivation of human embryonic stem cells in defined conditions. Nat. Biotechnol. 24, 185-187 (2006). Cells were run on FACSCalibur Flow Cytometer (Becton Dickinson). Data were analyzed with CellQuest software (Becton Dickinson)."}, "human ES and iPS cells": {"test_system": "human ES and iPS cells", "assay": "Long-term culture with single cell dissociation passaging", "assay_type": "cell-based", "conditions": "for proliferation rate / increase in number of cells compared with Matrigel or classical methods: FIG. 8; for passages proliferated: O3 medium", "protocol": "Human ES cells were cultured on r-laminin-521-coated laboratory dishes in chemically defined O3 medium (described in Rodin et al., Nature Biotechnol., vol. 28, pp. 611-615 (2010)) at 37° C. in 5% CO2. Cells were routinely passed once every 10-12 days by exposure to Trypsin-EDTA solution (GIBCO Invitrogen) for 5 minutes at 37° C. They were then gently pipetted to break into single-cell suspension and defined trypsin inhibitor (GIBCO Invitrogen) was added. The cell suspension was centrifuged […], the supernatant discarded, the cell pellet resuspended in prewarmed O3 medium, and cells were then passed through a 40 μm sieve. After that cells were plated on new r-laminin-521-coated dishes at a concentration 30 Kcells/cm^2 (1:25-1:30 split ratio). Cells were fed once a day with fresh medium prewarmed in an incubator for 1 hour, except for the first day after a passage, when only a few drops of fresh medium were added. Control cells of the same line were cultured on Matrigel (BD Biosciences) in O3 medium as described in Rodin et al., Nature Biotechnol., vol. 28, pp. 611-615 (2010). Control cells were passaged in pieces.\nHuman ES cells of HS181 and HS401 were cultured on LN-521-coated culture dishes in O3 medium (described in Rodin et al., Nature Biotechnol., vol. 28, pp. 611-615 (2010) with pH was adjusted to 7.35), mTeSR1 (STEMCELL Technologies) and chemically defined and xeno-free TeSR2 (STEMCELL Technologies) at 37° C., 5% CO2. Initially, cells of the lines were transferred onto a LN-521 coating from a human feeder cell layer by careful scratching using a sterile knife with subsequent trypsinization, or the cells were trypsinized into single cell suspension from a LN-511 coating. The cells were provided once a day with fresh medium pre-warmed in an incubator for one hour, except for the first day after plating, when only a few drops of fresh medium were added. Cells were routinely passed once in 10-12 days by exposure to Trypsin/EDTA (GIBCO Invitrogen Corporation, Paisley, Scotland) for 5 minutes at 37° C., 5% CO2. They were then gently pipetted to break into single-cell suspension and a Defined Trypsin Inhibitor (GIBCO Invitrogen) was added. The cell suspension was centrifuged at 25 rcf for 4 minutes, the supernatant was discarded, the cell pellet was resuspended in prewarmed O3 medium, and the cells were then passed through a 40 μm sieve. Subsequently, the cells were plated on new LN-521-coated dishes at a concentration of 30,000 cells/cm^2 in 1:25-1:30 split ratios. Control cells of the same line were cultured on Matrigel (STEMCELL Technologies) and LN-511 in O3 medium as described previously.^9\nFor defined and xeno-free cultures, TeSR2 (STEMCELL Technologies) medium and defined free from any animal derived component TrypLE™ Select (GIBCO Invitrogen Corporation, Paisley, Scotland) enzyme were used. The cells were passed every 10-14 days by exposure to TrypLE™ Select for 4-5 minutes at 37° C., 5% CO2. Then, the enzyme was carefully aspirated and prewarmed TeSR2 medium was added. After that, the cells were gently pipetted to break into single-cell suspension, centrifuged, the supernatant was discarded, and the cell pellet was resuspended in prewarmed TeSR2. The cells were then passed through a 40 μm sieve and plated on a fresh LN-521 coated dish."}}}
{"substance": "LN-521: protein formed by joining laminin α5, β2 and γ1 chains; human recombinant, produced in HEK293 cells", "values": [{"measurement": "embryoid body formation with markers of mesoderm, ectoderm and endoderm", "setting": "ES cells", "result": "retained the competence to form embryoid bodies"}, {"measurement": "percentage of Oct4 positive (pluripotent) cells compared with Matrigel", "setting": "OCT4", "result": "much higher percentage"}, {"measurement": "passages cultured", "setting": "human ES and iPS cells; ChiPSW iPS cells, mTeSR1", "result": 3, "unit": "passages"}, {"measurement": "robust proliferation with stable and high rate", "setting": "human ES and iPS cells; Example 1, O3 medium, 1:25 to 1:30, 3 months", "result": "at least 9 passages"}, {"measurement": "proliferation rate / increase in number of cells compared with Matrigel or classical methods", "setting": "human ES and iPS cells", "result": "much faster rate"}, {"measurement": "proliferation rate / increase in number of cells compared with Matrigel or classical methods", "setting": "human ES and iPS cells; listed as laminin-521", "result": "higher rate"}, {"measurement": "passages proliferated", "setting": "human ES and iPS cells; H1 cells, 6 months", "result": "≥ 15", "unit": "passages"}, {"measurement": "passages proliferated", "setting": "human ES and iPS cells; HS181 cells, 9 months", "result": "at least 24 passages"}, {"measurement": "passages proliferated", "setting": "human ES and iPS cells; HS401 cells, 2 months", "result": "≥ 5", "unit": "passages"}, {"measurement": "passages to undergo the same number of cell doublings as 20 passages (100 days / 3 months) by conventional methods on Matrigel", "setting": "human ES and iPS cells; single cell suspension passaging, 1 month", "result": 3, "unit": "passages"}]}
